The values that follow come from patent US9732075B2, “Benzimidazole-proline derivatives” (IDORSIA PHARMACEUTICALS LTD, priority 2012, dated 2017).

One assay addresses human orexin-1 receptor (Homo sapiens (Human), UniProt O43613). The assay is described as follows: In vitro assay: intracellular calcium measurements (FLIPR), antagonistic activity. Type of assay: cell-based. The settings on record: CHO cells expressing human orexin-1 receptor, orexin-A agonist, geometric mean, read-out: IC50 Ox1. The method in brief: (§1)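 IC50s are geometric means, possibly reference-normalized, from FLIPR calcium peaks in CHO cells bearing human orexin-1 or orexin-2 receptor. Fluo-4 AM/probenecid-loaded cells received antagonist for 120 min before challenge with orexin-A (final 3 nM, ~EC70), with responses compared against vehicle controls.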
Background: Calcium assays in cells follow changes in intracellular calcium, usually with a dye or a luminescent sensor.

For a further assay, the target named is human orexin-2 receptor (Homo sapiens (Human), UniProt O43614). The description is as above. Type of assay: cell-based. The conditions noted are these: CHO cells expressing human orexin-2 receptor, orexin-A agonist, geometric mean, read-out: IC50 Ox2. The method in brief: as §1
human orexin-2 receptor, sequence (O43614 whole entry): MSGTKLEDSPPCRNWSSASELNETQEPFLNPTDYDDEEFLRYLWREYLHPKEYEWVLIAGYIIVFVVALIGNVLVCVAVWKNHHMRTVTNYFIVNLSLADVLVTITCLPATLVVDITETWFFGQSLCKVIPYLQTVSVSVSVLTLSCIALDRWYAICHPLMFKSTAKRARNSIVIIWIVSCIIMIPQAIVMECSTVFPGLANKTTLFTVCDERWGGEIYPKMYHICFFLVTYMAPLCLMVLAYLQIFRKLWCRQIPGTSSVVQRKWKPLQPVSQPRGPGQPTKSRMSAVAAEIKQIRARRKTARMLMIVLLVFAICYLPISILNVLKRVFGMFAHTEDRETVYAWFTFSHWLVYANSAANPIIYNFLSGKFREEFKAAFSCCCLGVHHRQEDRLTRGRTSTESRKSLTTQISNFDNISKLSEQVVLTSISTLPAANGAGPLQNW

The structures appear in SMILES notation.

human orexin-1 receptor, sequence (O43613 whole entry): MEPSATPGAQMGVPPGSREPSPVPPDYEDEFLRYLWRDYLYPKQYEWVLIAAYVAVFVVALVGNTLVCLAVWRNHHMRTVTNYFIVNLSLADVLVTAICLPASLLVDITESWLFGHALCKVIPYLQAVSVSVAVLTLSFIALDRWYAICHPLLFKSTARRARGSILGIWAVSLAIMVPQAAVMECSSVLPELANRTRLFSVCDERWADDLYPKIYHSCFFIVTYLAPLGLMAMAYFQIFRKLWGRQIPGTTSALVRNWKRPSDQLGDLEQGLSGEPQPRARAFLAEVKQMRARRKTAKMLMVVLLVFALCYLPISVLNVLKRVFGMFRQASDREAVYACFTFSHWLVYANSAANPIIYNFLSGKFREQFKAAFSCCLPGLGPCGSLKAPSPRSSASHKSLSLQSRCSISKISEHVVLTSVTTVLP

`Cc1cc(Cl)cc2[nH]c([C@@H]3[C@@H](C)CCN3C(=O)c3ccccc3-n3nccn3)nc12` [Ex. 4.101]: the IC50 (as a rule, the concentration that inhibits the measured activity by half) was determined as 18 nM at human orexin-1 receptor and 183 nM on human orexin-2 receptor.

Consider `Cc1ccc(-c2ccccn2)c(C(=O)N2CC[C@H](C)[C@H]2c2nc3cc(Cl)c(C)cc3[nH]2)c1` [Ex. 4.102], for which the IC50 at human orexin-1 receptor was 10 nM; on human orexin-2 receptor, 103 nM.

For `Cc1cc2[nH]c([C@@H]3[C@@H](C)CCN3C(=O)c3cc(Cl)ccc3-c3ccccc3)nc2cc1Cl` [Ex. 4.103], the values for the half-maximal inhibitory concentration (IC50) at human orexin-1 receptor and at human orexin-2 receptor were 4 nM and 178 nM, respectively.

On to `Cc1ccc(-c2cccnc2)c(C(=O)N2CC[C@H](C)[C@H]2c2nc3cc(Cl)c(C)cc3[nH]2)c1` [Ex. 4.104], for which the figures for the IC50 at human orexin-1 receptor and on human orexin-2 receptor were 14 nM and 1660 nM, respectively.

In the case of `Cc1cc2[nH]c([C@@H]3[C@@H](C)CCN3C(=O)c3cc(F)ccc3-c3ccccc3)nc2cc1Cl` [Ex. 4.105], the IC50 at human orexin-1 receptor turned out to be 5 nM; at human orexin-2 receptor, 177 nM.

Consider `Cc1cc2[nH]c([C@@H]3[C@@H](C)CCN3C(=O)c3cc(F)ccc3-c3ccccn3)nc2cc1Cl` [Ex. 4.106], for which the concentration for half-maximal inhibition (IC50) at human orexin-1 receptor was determined as 23 nM; at human orexin-2 receptor it was 529 nM.

For `Cc1cc2[nH]c([C@@H]3[C@@H](C)CCN3C(=O)c3c(F)cccc3-c3cccnc3)nc2cc1Cl` [Ex. 4.107], the results for the IC50 at human orexin-1 receptor and on human orexin-2 receptor were 47 nM and 1760 nM, respectively.

As for `Cc1cc2[nH]c([C@@H]3[C@@H](C)CCN3C(=O)c3cc(C#N)ccc3-c3ccccc3)nc2cc1Cl` [Ex. 4.108], the IC50 is 7 nM at human orexin-1 receptor and 419 nM on human orexin-2 receptor.

As to `Cc1ccc(C(=O)N2CC[C@H](C)[C@H]2c2nc3cc(Cl)c(C)cc3[nH]2)c(-c2ccccn2)c1` [Ex. 4.109], the figures for the half-inhibitory concentration (IC50) on human orexin-1 receptor and at human orexin-2 receptor were 3 nM and 108 nM, respectively.

Take `Cc1ccc(C(=O)N2CC[C@H](C)[C@H]2c2nc3cc(Cl)c(C)cc3[nH]2)c(-c2cccnc2)c1` [Ex. 4.110]: the IC50 at human orexin-1 receptor is 13 nM; on human orexin-2 receptor, 1520 nM.

Take `Cc1ccc(C(=O)N2CC[C@H](C)[C@H]2c2nc3cc(Cl)c(C)cc3[nH]2)c(-c2ccccc2)c1` [Ex. 4.111]: the IC50 came out at 2 nM on human orexin-1 receptor and 110 nM on human orexin-2 receptor.

With `Cc1cc2[nH]c([C@@H]3[C@@H](C)CCN3C(=O)c3c(F)cccc3-c3ccccc3)nc2cc1Cl` [Ex. 4.112], the half-maximal inhibitory concentration (IC50) came to 3 nM on human orexin-1 receptor and 1060 nM on human orexin-2 receptor.

Consider `Cc1cc2[nH]c([C@@H]3[C@@H](C)CCN3C(=O)c3c(-c4ccccn4)ccc(C)c3F)nc2cc1Cl` [Ex. 4.113], for which the results for the IC50 at human orexin-1 receptor and on human orexin-2 receptor were 9 nM and 2040 nM, respectively.

On to `Cc1cc2[nH]c([C@@H]3[C@@H](C)CCN3C(=O)c3cc(C(F)(F)F)ccc3-c3ccccc3)nc2cc1Cl` [Ex. 4.114], for which the figures for the IC50 at human orexin-1 receptor and at human orexin-2 receptor were 33 nM and 1360 nM, respectively.

Take `Cc1cc2[nH]c([C@@H]3[C@@H](C)CCN3C(=O)c3c(-c4ccccc4)ccc(C)c3F)nc2cc1Cl` [Ex. 4.115]: the concentration for half-maximal inhibition (IC50) on human orexin-1 receptor worked out at 7 nM; on human orexin-2 receptor, 754 nM.

Consider `Cc1ccc(-c2ccccc2)c(C(=O)N2CC[C@H](C)[C@H]2c2nc3cc(Cl)c(C)cc3[nH]2)c1` [Ex. 4.116], for which the IC50 stood at 6 nM on human orexin-1 receptor and 198 nM at human orexin-2 receptor.

Turning to `Cc1cc2[nH]c([C@@H]3[C@@H](C)CCN3C(=O)c3c(-c4cccnc4)ccc(C)c3F)nc2cc1Cl` [Ex. 4.117], the IC50 worked out at 16 nM at human orexin-1 receptor and 2570 nM on human orexin-2 receptor.

As for `Cc1nc(C(=O)N2CC[C@H](C)[C@H]2c2nc3c(Cl)cccc3[nH]2)c(-c2ccc(F)cc2)s1` [Ex. 4.118], the IC50 is 50 nM at human orexin-1 receptor and 4350 nM at human orexin-2 receptor.

On to `Cc1nc(C(=O)N2CC[C@H](C)[C@H]2c2nc3c(Cl)cccc3[nH]2)c(-c2cc(F)cc(F)c2)s1` [Ex. 4.119], for which the IC50 on human orexin-1 receptor turned out to be 21 nM; at human orexin-2 receptor it was 2050 nM.

With `Cc1nc(C(=O)N2CC[C@H](C)[C@H]2c2nc3c(Cl)cccc3[nH]2)c(-c2ccc(Cl)cc2)s1` [Ex. 4.120], the IC50 worked out at 14 nM on human orexin-1 receptor and 725 nM at human orexin-2 receptor.

In the case of `COc1cccc(-c2sc(C)nc2C(=O)N2CC[C@H](C)[C@H]2c2nc3c(Cl)cccc3[nH]2)c1` [Ex. 4.121], the figures for the IC50 on human orexin-1 receptor and at human orexin-2 receptor were 6 nM and 475 nM, respectively.
